Reference: patent publication US10981893B2, “Therapeutic inhibitory compounds” (Attune Pharmaceuticals, Inc., priority 2015, dated 2021)

Each molecule was assayed against human Plasma Kallikrein (Homo sapiens (Human), UniProt P03952) (assay: In vitro enzyme inhibition of human plasma kallikrein (Pro-Phe-Arg-AMC cleavage)). Conditions: PFR-AMC substrate, 37° C., read-out: hPK IC50.
Type: biochemical
Description: The ability of the compounds disclosed herein to inhibit human plasma kallikrein activity was quantified according to the procedures below.
A 10 mM solution of the test compound was made in DMSO. This solution was serially diluted 1:5 in DMSO to yield 2000, 400, 80, 16, 3.2, 0.64, 0.128, 0.0256 and 0.00512 μM compound test solutions. A control tube containing only DMSO is included. 16 μL of each compound test solution was combined with 384 μL of assay buffer (50 mM Tris-HCl pH 7.5, 150 mM NaCl, 0.01% Triton X-100) to yield a “4× test compound buffer stock”.
Separately, a 40 nM solution of human Plasma Kallikrein (Abcam) and a 93.6 μM solution Pro-Phe-Arg-AMC (Bachem) were made using assay buffer. These solutions are hereby refereed to as 4×hPK and 2×PFR-AMC, respectively.
60 μL of each 4× test compound buffer stock was combined with 60 μL of 4× hPK to yield 120 μL of “2× test compound buffer stock/2×hPK”. 50 μL was removed from this mixture and placed into duplicate wells on a Microfluor 1 Black U-bottom microtiter plate (Thermo Scientific). This plate was incubated for 5 minutes at 37° C. To each well, 50 μL of pre-warmed 2×PFR-AMC was added to start the enzymatic reaction. Cleavage of PFR-AMC was monitored in a Biotek Synergy H4 reader set at 37° C. Readings are taken every 43 seconds for 1 hour. The highest mean velocity over 20 reads (˜15 minutes) is used to calculate the IC50. The IC50 is calculated using the Gen5 (Biotek Instruments).
The ability of the compounds in Table 1 to inhibit human plasma kallikrein activity was determined and the data is shown in Table 3.

Sequence of human Plasma Kallikrein (P03952 391-638 limits assumed): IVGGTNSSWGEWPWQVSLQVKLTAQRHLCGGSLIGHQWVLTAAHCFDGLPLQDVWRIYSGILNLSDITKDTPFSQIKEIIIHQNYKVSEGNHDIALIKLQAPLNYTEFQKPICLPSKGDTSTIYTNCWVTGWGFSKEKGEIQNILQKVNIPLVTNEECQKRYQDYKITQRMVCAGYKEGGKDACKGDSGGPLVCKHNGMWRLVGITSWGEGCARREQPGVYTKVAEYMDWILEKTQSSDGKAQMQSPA
Sequence of human Plasma Kallikrein (P03952 20-390 partner limits assumed): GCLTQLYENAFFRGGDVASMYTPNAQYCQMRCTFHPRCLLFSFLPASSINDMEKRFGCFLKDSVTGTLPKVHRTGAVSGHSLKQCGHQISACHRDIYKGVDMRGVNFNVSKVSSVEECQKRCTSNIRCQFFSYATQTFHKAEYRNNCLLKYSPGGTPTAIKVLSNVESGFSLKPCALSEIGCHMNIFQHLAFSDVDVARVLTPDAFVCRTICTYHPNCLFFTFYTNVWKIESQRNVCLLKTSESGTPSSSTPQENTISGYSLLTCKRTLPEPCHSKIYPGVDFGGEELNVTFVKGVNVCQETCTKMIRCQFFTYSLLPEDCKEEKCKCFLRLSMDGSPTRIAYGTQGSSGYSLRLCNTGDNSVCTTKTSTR

SMILES	IC50 [µM]
O=C(NCc1cc2c(Cl)c[nH]c2cc1F)c1ccc(=O)n(CC23CC(Cn4ccccc4=O)(C2)C3)c1 [Example 17, N-((3-chloro-6-fluoro-1H-indol-5-yl)methyl)-6-oxo-1-((3-((2-oxopyridin-1(2H)-yl)methyl)bicyclo[1.1.1]pentan-1-yl)methyl)-1,6-dihydropyridine-3-carboxamide]	1 to 10
N#Cc1cnn(Cc2cncc(C(=O)NCc3cc4c(Cl)c[nH]c4cc3F)c2)c1 [Example 7, N-((3-chloro-6-fluoro-1H-indol-5-yl)methyl)-5-((4-cyano-1H-pyrazol-1-yl)methyl)nicotinamide]	1 to 10
CC(=O)N(Cc1ccn(Cc2cc(C(=O)NCc3cc4c(Cl)c[nH]c4cc3F)ccn2)n1)C1CC1 [Example 9, N-((3-chloro-6-fluoro-1H-indol-5-yl)methyl)-2-((3-((N-cyclopropylacetamido)methyl)-1H-pyrazol-1-yl)methyl)isonicotinamide]	> 10
CS(=O)(=O)c1cc(Cc2cc(C(=O)NCc3cnc(N)cc3C(F)(F)F)ccn2)ccc1Cn1ccccc1=O [Example 27, N-((6-amino-4-(trifluoromethyl)pyridin-3-yl)methyl)-2-(3-(methylsulfonyl)-4-((2-oxopyridin-1(2H)-yl)methyl)benzyl)isonicotinamide]	0.1 to 1
CS(=O)(=O)c1cc(Cc2cc(C(=O)NCc3ccc(N)nc3C(F)(F)F)ccn2)ccc1Cn1ccccc1=O [Example 26, N-((6-amino-2-(trifluoromethyl)pyridin-3-yl)methyl)-2-(3-(methylsulfonyl)-4-((2-oxopyridin-1(2H)-yl)methyl)benzyl)isonicotinamide]	1 to 10
NC(=O)c1cnn(Cc2cncc(C(=O)NCc3cc4c(Cl)c[nH]c4cc3F)c2)c1 [Example 8, 5-((4-carbamoyl-1H-pyrazol-1-yl)methyl)-N-((3-chloro-6-fluoro-1H-indol-5-yl)methyl)nicotinamide]	> 10

Now from value to molecule:

IC50 [µM]	SMILES
1 to 10	COc1ccc(CNC(=O)c2cncc(Cc3ccc(Cn4ccccc4=O)cc3)c2)cc1 [Example 16, N-(4-methoxybenzyl)-5-(4-((2-oxopyridin-1(2H)-yl)methyl)benzyl)nicotinamide]
1 to 10	O=C(NCc1n[nH]c2ccc(Cl)cc12)c1cncc(Cc2ccccc2)c1 [Example 5, 5-benzyl-N-((5-chloro-1H-indazol-3-yl)methyl)nicotinamide]
1 to 10	O=C(NCc1n[nH]c2ccc(Cl)cc12)c1cncc(Cc2ccc(C(F)(F)F)cc2)c1 [Example 3, N-((5-chloro-1H-indazol-3-yl)methyl)-5-(4-(trifluoromethyl)benzyl)nicotinamide]
> 10	O=C(NCc1ccc(Br)c(F)c1)c1ccnc(Cc2ccc(Cn3ccccc3=O)cc2)c1 [Example 18, N-(4-bromo-3-fluorobenzyl)-2-(4-((2-oxopyridin-1(2H)-yl)methyl)benzyl)isonicotinamide]
1 to 10	N#Cc1ccc(Cc2cncc(C(=O)NCc3n[nH]c4ccc(Cl)cc34)c2)cc1 [Example 2, N-((5-chloro-1H-indazol-3-yl)methyl)-5-(4-cyanobenzyl)nicotinamide]
1 to 10	Cc1ccc(Cc2cncc(C(=O)NCc3n[nH]c4ccc(Cl)cc34)c2)cc1 [Example 4, N-((5-chloro-1H-indazol-3-yl)methyl)-5-(4-methylbenzyl)nicotinamide]
1 to 10	NC(=O)C(NC(=O)c1cncc(Cc2ccc(Cn3ccccc3=O)cc2)c1)c1n[nH]c2ccc(Cl)cc12 (centres unmarked) [Example 11, N-(2-amino-1-(5-chloro-1H-indazol-3-yl)-2-oxoethyl)-5-(4-((2-oxopyridin-1(2H)-yl)methyl)benzyl)nicotinamide]
1 to 10	O=C(NCc1ccc(Cl)cc1)c1cncc(Cc2ccc(Cn3ccccc3=O)cc2)c1 [Example 15, N-(4-chlorobenzyl)-5-(4-((2-oxopyridin-1(2H)-yl)methyl)benzyl)nicotinamide]
